Data on five compounds can be found in US12668646B2, “Cross-linking compounds and methods of use thereof” (North Carolina State University, priority 2019, dated 2026).

Values joined by “and” are separate entries in the source; they are usually repeats but may differ in a detail not shown here. Equal entries are not always repeated.

What all share (format): biochemical
Assay [1] addresses T1, β-glucosidase from Agrobacterium (Agrobacterium sp., UniProt P12614).
T1 construct: purchased Megazyme
T1 sequence (P12614 1-459): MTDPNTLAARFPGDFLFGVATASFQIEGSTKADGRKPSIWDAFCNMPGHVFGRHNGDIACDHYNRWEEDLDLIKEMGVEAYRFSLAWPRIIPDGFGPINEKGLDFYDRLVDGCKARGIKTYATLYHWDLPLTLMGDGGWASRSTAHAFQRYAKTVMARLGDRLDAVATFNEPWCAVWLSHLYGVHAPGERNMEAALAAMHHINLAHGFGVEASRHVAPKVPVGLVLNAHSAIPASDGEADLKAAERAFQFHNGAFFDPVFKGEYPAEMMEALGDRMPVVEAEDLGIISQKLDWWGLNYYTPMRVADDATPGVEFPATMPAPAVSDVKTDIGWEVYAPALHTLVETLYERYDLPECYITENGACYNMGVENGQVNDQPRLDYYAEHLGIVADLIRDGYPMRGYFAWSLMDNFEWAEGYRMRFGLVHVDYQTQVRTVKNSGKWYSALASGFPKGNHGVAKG
The experiment in a line: Indigogenic reaction with β-glucosidase from Agrobacterium. How it is done: Next, the β-glucosidase from Agrobacterium sp. was investigated as the trigger enzyme for indigoid dye formation. […] The reaction was carried out using the enzyme (200 nM) and indoxyl-glucoside 33 (100 μM) in phosphate buffer (pH 4-9, containing 2% DMF) at 37° C. […] Note that with 200 nM enzyme and 100 μM substrate, complete reaction requires 500 turnovers of each enzyme.
Reactions with β-glucosidase from Agrobacterium. An indoxyl compound in DMF (2 μL, 5 mM) and β-glucosidase from Agrobacterium in 10 mM phosphate buffer [2 μL, 10 μM, pH 7.0, containing 50 mM NaCl and 0.6 M (NH4)2SO4] were mixed with 50 mM phosphate buffer (96 μL, pH 7.0). The reaction mixture was incubated at 37° C. for 2 h and then centrifuged for 3 min. Any precipitate was separated from the supernatant and dissolved in DMF (200 μL). The resulting solution was analyzed by absorption spectroscopy. The experiment was repeated three times.

For assay [2], the target named is T2, β-glucosidase from Agrobacterium sp. (Agrobacterium sp., UniProt P12614).
T2 construct: purchased Megazyme
T2 sequence (P12614 1-459): T1 sequence (P12614 1-459)
The experiment in a line: Oligomerization of compound V with β-glucosidase. How it is done:
The oligomerization of compound V was examined by treatment with the enzyme […]-glucosidase. The reaction mixture contained 50 μM of compound V and 200 nM of β-glucosidase (250-fold ratio). The reaction mixture was only faintly blue but upon centrifugation after 5 h of incubation, a blue precipitate was obtained. According to the colors of samples (FIG. 13, panel A), the yield of precipitate is low by comparison with our previously reported enzyme-substrate pairs (see Example 1). Multiple additions of enzyme (4×0.20 μM of enzyme stock, every 2 h) and longer incubation times (10 h or 24 h) were also tested but no increase in solution intensity or precipitate was observed. For the samples after 300 min of incubation, the precipitates suspended in H2O were screened by optical microscopy (FIG. 13, panel B) and DLS (FIG. 13, panel C). The size of aggregates is between 100 and 1000 nm as measured by DLS, which is consistent with the images obtained by optical microscopy (˜1 μm).
Quantitation of the indigogenic compounds in the precipitate and supernatant was carried out by absorption spectroscopy and multicomponent analysis (MCA) (M. Taniguchi, et al., Photochem. Photobiol., 2018, 94, 277-289) (FIG. 13, panels D and E). MCA analysis is essential due to the overlaid spectra of indigo and coumarin at 362 nm, the peak wavelength for the coumarin. Spectral deconvolution relied on knowledge of the molar absorption coefficient at 362 nm of coumarin (εcou362=2.0×10^4 M^−1 cm^−1 measured in DMF) and indigo model compound F19 (see Example 1 where F-19 is compound 43) shown in Chart 2 (εind362=0.81×10^4 M^−1 cm^−1 measured in DMSO/H2O, v/v=2/1); and the molar absorption coefficient of F19 at 630 nm (εind630=2.6×10^4 M^[…] cm^−1, measured in DMSO/H2O, v/v=2/1). The residual upon MCA was smaller than any of the components, as required for accurate analysis (Y. Mang, et al., Phytochem. Anal., 2018, 29, 205-216). In this manner, the precipitate is composed of 51.6 nmol of coumarin and 2.8 nmol of indigoid dye; the supernatant is composed of 11.1 nmol of coumarin and 0.3 nmol of indigoid dye.
Materials. DMF (HPLC grade) was purchased from Alfa Aesar. H2O (molecular biology grade) for buffer preparation was purchased from Millipore Sigma. Compound V (5.6 mg) was dissolved in DMF (26 μL) to prepare 100 mM stock solution. Pi buffer was prepared freshly at 10 mM, pH 7. The enzyme β-glucosidase from Agrobacterium sp. was purchased from MegaZyme and was dissolved in Pi buffer at 10 μM to prepare the stock solution.
To screen the oligomerization procedure of compound V, samples of Pi buffer (1859 μL), DMF (100 μL), β-glucosidase stock (40 μL) and compound V stock (1 μL) were mixed in a 2-mL Eppendorf tube. The resulting mixed sample (2.0 mL) contains 50 μM of compound V as the substrate and 0.20 μM of β-glucosidase as the enzyme. Three identical samples were prepared for different assays. For a control sample, 40 μL of Pi buffer was added as a replacement for the β-glucosidase stock solution. The tubes were incubated at 37° C. for 5 h, and pictures of the tubes were captured at 0, 15, 30, 60, 120, 180 and 300 min. After 300 min, the tubes were centrifuged at 20,000×g for 10 min to isolate any precipitate from the supernatant. No precipitate formed in the control sample.
Three samples were treated differently for three assays: (1) for sample 1, the precipitate was dissolved in 100 μL of DMF for absorption screening; (2) for sample 2, the precipitate was suspended in 100 μL of H2O for microscopic imaging; and (3) for sample 3, the precipitate was suspended in 1000 μL of H2O for dynamic light scattering (DLS) assay. The supernatant of sample 1 was freeze-dried under high vacuum and afterwards dissolved in 100 μL of DMF for absorption screening. The absorption spectra of the precipitates and supernatants were employed for quantitation of indigo and coumarin. […]

The target in assay [3] is T1, β-glucosidase from Agrobacterium. In words: Enzyme-triggered oligomerization of bis(indoxyl-glucoside) 46. How it is done:
Oligomerization of 46 was carried out by treatment with β-glucosidase from Agrobacterium (200 nM) in 10 mM phosphate buffer (pH 7) at 37° C. for 2-4 h (Scheme 9). Precipitation occurred during the reaction. After centrifugation, the precipitate was separated from the supernatant, washed with H2O, and dried to afford a blue solid.
The efficacy of the indigogenic oligomerization was examined under a variety of conditions. As shown in entries 1-4 in Table 2, the yield of indigoid dye in the supernatant versus precipitate reversed as the concentration of 46 was decreased from 300 to 10 μM, although the total yields were in the range 17-29%. While the reactions in entries 1-4 were carried out in phosphate buffer containing NaCl (0.05 M), those of entries 5 and 6 (with 300 and 50 μM of 46, respectively) were conducted in NaCl-free phosphate buffer. The use of NaCl-free phosphate buffer facilitated extraction of the indigoid dye in the supernatant for analysis.
The time course of the oligomerization was examined under the reaction conditions listed in entry 5 of Table 2, with 300 μM of 46. Noticeable changes include observation of blue clouding and color deepening at 20 min. Centrifugation enabled isolation of the precipitate. […] The absorption spectrum of the precipitate was examined in DMF/DMSO (9:1) and compared with that of the extracted supernatant (in DMF) and 43 (in DMF) (FIG. 10D). […] Size-exclusion chromatography (SEC) [DMF/DMSO (9:1) as eluent] was applied to the precipitate and to the supernatant extract prepared from 300 μM of 46 (FIG. 10E). The first peak appeared at 18-20 min, and then the second peak at 38.5 min. The ratio of peak areas in the supernatant extract was 11:89, whereas that in the precipitate was 93:7. On the basis of a calibration curve prepared with poly(2-vinylpyridine) standards, the molecular size for the first and second peaks was expected to be >265 and <1 kDa, respectively. The large molecular size indicated for the first peak likely implies aggregation or assembly of the oligomers. The chromatograms for the samples prepared with 50 μM of 46 gave similar results but with higher purity compared with those at higher concentration.

Assay [4] concerns β-glucosidase from almonds. In words: Indigogenic reaction with β-glucosidase from almonds. The note with it: indoxyl 1 mM, enzyme 1 unit/mL, 0.01M acetate buffer pH 5, 5% DMF, 37° C., 16-19 h; ϵ = 1.27 × 10^4 M^−1 cm^−1 measured for 4.
In the next assay the test system is tritosomes. In words: Indigoid dye formation with tritosomes. The note with it: result in words. How it is done:
The results from the glucosidase survey prompted several further experiments. First, a parallel set of studies was carried out with inclusion of several oxidants commonly employed in histochemical studies, given that the indigoid dye forming process requires the presence of an oxidant. […] The activity of the β-glucosidase was affected only slightly in the presence of a non-ionic detergent. To verify that the results observed in Table 1 were reliable, a 5-mg scale reaction of 33 was carried out to isolate indigo 43, which was obtained in 66% yield (Scheme 7). The 66% isolated yield corresponded well with the enzymatic yield of […] (Table 1, entry 15).
General methods. β-Glucosidase from almonds (lyophilized powder, ≥2 units/mg solid) and peroxidase from horseradish were purchased from Sigma-Aldrich. β-Glucosidase from Agrobacterium sp. (recombinant, suspension in 3.2 M (NH4)2SO4) was purchased from Megazyme; the concentration in solution was determined by absorption spectroscopy with E^0.1%=2.20 cm^−1 at 280 nm.^37 Tritosomes were purchased from XenoTech. Rat liver homogenate was purchased from MP Biomedicals.

[5] abbreviates: 100 nmol compound V added, absorption spectroscopy and MCA.
The mark [6] stands for this setting: absorption spectroscopy and MCA.

“5-{[(1R,8S,9s)-Bicyclo[6.1.0]non-4-yn-9-yl]methoxy}-4,6-dibromo-1H-indole-3-yl β-D-glucopyranoside [Compound 30]”: the “Yield (%) β-glucosidase from Agrobacterium” value in assay [1] (as E4 but ϵ = 2.6 × 10^4 M^−1 cm^−1 measured for 43) was 10% and 10 ± 0.4%; in assay [1] (indoxyl 100 μM, enzyme 200 nM, 0.05M phosphate buffer pH 7.0, 2% DMF, 37° C., 2 h, n=3, ϵ = 1.27 × 10^4 M^−1 cm^−1), 21 ± 1%.

On to “2,4-Bis[1-(3-(β-D-glucopyranosyloxy)-4,6-dibromo-1H-indol-5-yl)-1,4,7,10-tetraoxadec-10-yl]-6-[14-(3-(2-(1-azido-3,6,9,12,15-pentaoxoheptadecylamino)-4-[12-((4-methyl-2H-chromen-2-one-7-yl)amino)ethylamino]-1,3,5-triazin-6-yloxy)propyl)-4-(3-sulfopropyl)piperazin-1-yl]-1,3,5-triazine [Compound V]”, for which, in assay [2] (setting [5]), the “Indigoid dye in the precipitate” value turned out to be 2.8 nmol and the “Indigoid dye in the supernatant” value amounted to 0.3 nmol. The “Yield of indigoid dye (total)” value in assay [2] (50 μM compound V, 200 nM β-glucosidase, 37° C., 5 h, MCA) amounted to 3.1%. Moreover, in assay [2] (setting [6]), the “Coumarin in the precipitate” value came out at 51.6 nmol and the “Coumarin in the supernatant” value came out at 11.1 nmol. Besides, the “Size of aggregates (optical microscopy)” value in assay [2] (precipitate after 300 min suspended in H2O) is recorded as about 1 μm. Also, the “Total quantity of indigoid dye” value in assay [2] (precipitate plus supernatant) is on record as 3.1 nmol. For the same compound, the “Total amount of coumarin calculated by MCA” value in assay [2] (precipitate plus supernatant, 100 nmol compound V added) was 62.7 nmol.

Consider `O=S(=O)([O-])CCC[N+]1(CCCO)CCN(c2nc(OCCOCCOCCOc3c(Br)cc4[nH]cc(O[C@@H]5O[C@H](CO)[C@@H](O)[C@H](O)[C@H]5O)c4c3Br)nc(OCCOCCOCCOc3c(Br)cc4[nH]cc(O[C@@H]5O[C@H](CO)[C@@H](O)[C@H](O)[C@H]5O)c4c3Br)n2)CC1` [Compound 46], for which the “Total yield of indigoid dye (supernatant plus precipitate)” value in assay [3] (entries 1-4 of Table 2, [46] 300 to 10 μM) was 17-29%. Besides, in assay [3] (entry 1: [46] 300 μM, 2 h, phosphate buffer containing NaCl (0.05M), ε = 2.6 × 10^4), the “Yield of indigoid dye (%) supernatant” value is 6%. The “Yield of precipitate based on the monomer formula weight” value in assay [3] (larger scale (7.87 mg), conditions of entry 5 in Table 2) came to 49%. In addition, the “Particle size of the precipitate (DLS, number mean)” value in assay [3] (precipitate suspended in H2O, 300 μM of 46, entry 5 conditions) is recorded as about 680 nm.

As for “5-[(Benzylcarbamoyl)oxy)]-1H-indole-3-yl β-D-glucopyranoside [Compound 16]”, in assay [4], the “Yield (%) β-glucosidase from almonds” value was 24%. In the assay with tritosomes, the “Indigoid dye formation with tritosomes” value is given as “low yield”.

On to `COc1nc(Oc2ccc3[nH]cc(O[C@@H]4O[C@H](CO)[C@@H](O)[C@H](O)[C@H]4O)c3c2)nc(N2CCOCC2)n1` [Compound 19, 5-[(4-Methoxy-6-morpholino-1,3,5-triazin-2-yl)oxy]-1H-indole-3-yl β-D-glucopyranoside], for which the “Yield (%) β-glucosidase from almonds” value in assay [4] was under 1%. Further, the “Indigoid dye formation with tritosomes” value with tritosomes is “low yield”.
